Key:
[1] = tested on: Proto-oncogene tyrosine-protein kinase receptor Ret (Homo sapiens), P07949 [V804M]; conditions: Compound concentration 1000.0 nM
[2] = molecular target: Ephrin type-B receptor 6 (Homo sapiens) (UniProt O15197); conditions: Compound concentration 1000.0 nM
[3] = molecular target: Myosin-IIIa (Homo sapiens) (UniProt Q8NEV4); conditions: Compound concentration 1000.0 nM
[4] = molecular target: Sodium-dependent dopamine transporter (Homo sapiens) (UniProt Q01959); conditions: Compound concentration 10.0 uM
[5] = molecular target: 5-hydroxytryptamine receptor 5A (Homo sapiens) (UniProt P47898); conditions: Compound concentration 10.0 uM
[6] = tested on: Tyrosine-protein kinase ABL1 (Homo sapiens), P00519 [Q252H]; conditions: Compound concentration 1000.0 nM
[7] = molecular target: Mitotic checkpoint serine/threonine-protein kinase BUB1 (Homo sapiens) (UniProt O43683); conditions: Compound concentration 1000.0 nM
[8] = molecular target: Serine/threonine-protein kinase 24 (Homo sapiens) (UniProt Q9Y6E0); conditions: Compound concentration 1000.0 nM
[9] = molecular target: Ribosomal protein S6 kinase alpha-6 (Homo sapiens) (UniProt Q9UK32); conditions: Compound concentration 1000.0 nM
[10] = molecular target: Casein kinase I isoform epsilon (Homo sapiens) (UniProt P49674); conditions: Compound concentration 1000.0 nM
[11] = tested on: Receptor-type tyrosine-protein kinase FLT3 (Homo sapiens), P36888 [R834Q]; conditions: Compound concentration 1000.0 nM
[12] = molecular target: Eukaryotic translation initiation factor 2-alpha kinase 1 (Homo sapiens) (UniProt Q9BQI3); conditions: Compound concentration 1000.0 nM
[13] = tested on: Phosphatidylinositol 4,5-bisphosphate 3-kinase catalytic subunit alpha isoform (Homo sapiens), P42336 [M1043I]; conditions: Compound concentration 1000.0 nM
[14] = molecular target: RAC-gamma serine/threonine-protein kinase (Homo sapiens) (UniProt Q9Y243); conditions: Compound concentration 1000.0 nM
[15] = molecular target: Cyclin-dependent kinase 17 (Homo sapiens) (UniProt Q00537); conditions: Compound concentration 1000.0 nM
[16] = molecular target: Tyrosine-protein kinase Fes/Fps (Homo sapiens) (UniProt P07332); conditions: Compound concentration 1000.0 nM
[17] = molecular target: Protein kinase C delta type (Homo sapiens) (UniProt Q05655); conditions: Compound concentration 1000.0 nM
[18] = tested on: Epidermal growth factor receptor (Homo sapiens), P00533 [G719C]; conditions: Compound concentration 1000.0 nM
[19] = molecular target: Mitogen-activated protein kinase 3 (Homo sapiens) (UniProt P27361); conditions: Compound concentration 1000.0 nM
[20] = molecular target: Mitogen-activated protein kinase kinase kinase kinase 4 (Homo sapiens) (UniProt O95819); conditions: Compound concentration 1000.0 nM
[21] = molecular target: D(1B) dopamine receptor (Homo sapiens) (UniProt P21918); conditions: Compound concentration 10.0 uM
[22] = molecular target: Inhibitor of nuclear factor kappa-B kinase subunit alpha (Homo sapiens) (UniProt O15111); conditions: Compound concentration 1000.0 nM
[23] = molecular target: Dual specificity protein kinase TTK (Homo sapiens) (UniProt P33981); conditions: Compound concentration 1000.0 nM
[24] = tested on: Proto-oncogene tyrosine-protein kinase receptor Ret (Homo sapiens), P07949 [V804L]; conditions: Compound concentration 1000.0 nM
[25] = molecular target: Kappa-type opioid receptor (Homo sapiens, UniProt P41145); conditions: Compound concentration 10.0 uM
[26] = molecular target: Phosphatidylinositol 4,5-bisphosphate 3-kinase catalytic subunit beta isoform (Homo sapiens) (UniProt P42338); conditions: Compound concentration 1000.0 nM
[27] = molecular target: Vascular endothelial growth factor receptor 1 (Homo sapiens) (UniProt P17948); conditions: Compound concentration 1000.0 nM
[28] = molecular target: Serine/threonine-protein kinase pim-2 (Homo sapiens) (UniProt Q9P1W9); conditions: Compound concentration 1000.0 nM
[29] = molecular target: MAP kinase-interacting serine/threonine-protein kinase 1 (Homo sapiens) (UniProt Q9BUB5); conditions: Compound concentration 1000.0 nM
[30] = molecular target: Serine/threonine-protein kinase 38-like (Homo sapiens) (UniProt Q9Y2H1); conditions: Compound concentration 1000.0 nM
[31] = molecular target: Cyclin-dependent kinase-like 1 (Homo sapiens) (UniProt Q00532); conditions: Compound concentration 1000.0 nM
[32] = molecular target: Cyclin-dependent kinase 16 (Homo sapiens) (UniProt Q00536); conditions: Compound concentration 1000.0 nM
[33] = molecular target: Mitogen-activated protein kinase kinase kinase 9 (Homo sapiens) (UniProt P80192); conditions: Compound concentration 1000.0 nM
[34] = molecular target: Protein-tyrosine kinase 6 (Homo sapiens) (UniProt Q13882); conditions: Compound concentration 1000.0 nM
[35] = molecular target: Platelet-derived growth factor receptor beta (Homo sapiens) (UniProt P09619); conditions: Compound concentration 1000.0 nM
[36] = molecular target: Proto-oncogene tyrosine-protein kinase receptor Ret (Homo sapiens) (UniProt P07949); conditions: Compound concentration 1000.0 nM
[37] = molecular target: Dual specificity protein kinase CLK2 (Homo sapiens) (UniProt P49760); conditions: Compound concentration 1000.0 nM
[38] = molecular target: Ribosomal protein S6 kinase alpha-1 (Homo sapiens) (UniProt Q15418); conditions: Compound concentration 1000.0 nM
[39] = molecular target: Interleukin-1 receptor-associated kinase 4 (Homo sapiens) (UniProt Q9NWZ3); conditions: Compound concentration 1000.0 nM
[40] = molecular target: Dual specificity protein kinase CLK4 (Homo sapiens) (UniProt Q9HAZ1); conditions: Compound concentration 1000.0 nM
[41] = molecular target: Serine/threonine-protein kinase Sgk1 (Homo sapiens) (UniProt O00141); conditions: Compound concentration 1000.0 nM
[42] = molecular target: Serine/threonine-protein kinase D3 (Homo sapiens) (UniProt O94806); conditions: Compound concentration 1000.0 nM
[43] = molecular target: Calcium/calmodulin-dependent protein kinase type II subunit beta (Homo sapiens) (UniProt Q13554); conditions: Compound concentration 1000.0 nM
[44] = molecular target: Glycogen synthase kinase-3 alpha (Homo sapiens) (UniProt P49840); conditions: Compound concentration 1000.0 nM
[45] = molecular target: Mu-type opioid receptor (Homo sapiens, UniProt P35372); conditions: Compound concentration 10.0 uM

Sequence of Serine/threonine-protein kinase Sgk1 (Homo sapiens) (O00141 whole entry): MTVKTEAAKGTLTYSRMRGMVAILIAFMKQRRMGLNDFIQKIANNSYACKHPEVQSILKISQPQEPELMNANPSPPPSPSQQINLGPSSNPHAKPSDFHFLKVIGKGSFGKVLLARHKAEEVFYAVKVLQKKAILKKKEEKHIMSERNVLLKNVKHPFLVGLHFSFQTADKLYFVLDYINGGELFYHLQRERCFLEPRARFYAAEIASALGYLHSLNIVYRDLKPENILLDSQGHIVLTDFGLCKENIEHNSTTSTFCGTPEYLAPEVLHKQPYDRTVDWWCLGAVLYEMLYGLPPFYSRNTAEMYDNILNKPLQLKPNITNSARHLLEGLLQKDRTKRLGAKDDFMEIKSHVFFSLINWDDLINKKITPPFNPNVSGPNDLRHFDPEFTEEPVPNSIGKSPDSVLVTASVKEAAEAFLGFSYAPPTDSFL
Sequence of Mitogen-activated protein kinase kinase kinase kinase 4 (Homo sapiens) (O95819 2-1239 limits assumed): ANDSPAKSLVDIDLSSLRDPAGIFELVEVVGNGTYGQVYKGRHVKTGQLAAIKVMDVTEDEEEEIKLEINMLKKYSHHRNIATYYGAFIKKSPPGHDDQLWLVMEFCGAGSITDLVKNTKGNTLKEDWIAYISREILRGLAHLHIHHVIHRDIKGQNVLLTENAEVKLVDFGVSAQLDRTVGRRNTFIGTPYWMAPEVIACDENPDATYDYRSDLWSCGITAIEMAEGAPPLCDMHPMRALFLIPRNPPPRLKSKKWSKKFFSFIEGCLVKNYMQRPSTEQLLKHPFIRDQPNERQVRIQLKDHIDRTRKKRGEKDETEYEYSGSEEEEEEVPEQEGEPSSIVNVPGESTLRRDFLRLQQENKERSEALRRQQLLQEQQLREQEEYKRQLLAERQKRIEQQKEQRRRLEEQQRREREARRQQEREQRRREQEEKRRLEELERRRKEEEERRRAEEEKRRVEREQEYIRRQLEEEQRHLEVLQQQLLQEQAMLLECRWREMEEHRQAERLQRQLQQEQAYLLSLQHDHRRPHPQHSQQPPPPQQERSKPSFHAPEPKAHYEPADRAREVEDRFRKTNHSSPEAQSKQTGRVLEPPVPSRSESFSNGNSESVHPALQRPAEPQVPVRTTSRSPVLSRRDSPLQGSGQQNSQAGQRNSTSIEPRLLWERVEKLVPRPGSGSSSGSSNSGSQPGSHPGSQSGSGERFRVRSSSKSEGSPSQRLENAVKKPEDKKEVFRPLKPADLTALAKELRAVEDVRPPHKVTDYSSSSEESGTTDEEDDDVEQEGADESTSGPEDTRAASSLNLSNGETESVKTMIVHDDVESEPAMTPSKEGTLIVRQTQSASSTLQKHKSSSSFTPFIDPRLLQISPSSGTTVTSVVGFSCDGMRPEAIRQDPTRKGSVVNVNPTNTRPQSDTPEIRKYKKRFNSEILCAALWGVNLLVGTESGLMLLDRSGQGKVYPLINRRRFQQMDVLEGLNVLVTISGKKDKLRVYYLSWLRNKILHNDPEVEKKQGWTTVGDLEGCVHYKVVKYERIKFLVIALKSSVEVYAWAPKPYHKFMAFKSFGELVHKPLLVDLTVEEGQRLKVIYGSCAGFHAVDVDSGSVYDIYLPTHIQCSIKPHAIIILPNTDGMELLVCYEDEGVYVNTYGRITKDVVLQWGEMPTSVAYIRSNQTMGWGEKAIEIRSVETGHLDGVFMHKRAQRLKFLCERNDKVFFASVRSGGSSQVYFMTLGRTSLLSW
Sequence of Casein kinase I isoform epsilon (Homo sapiens) (P49674 whole entry, looked up, canonical isoform): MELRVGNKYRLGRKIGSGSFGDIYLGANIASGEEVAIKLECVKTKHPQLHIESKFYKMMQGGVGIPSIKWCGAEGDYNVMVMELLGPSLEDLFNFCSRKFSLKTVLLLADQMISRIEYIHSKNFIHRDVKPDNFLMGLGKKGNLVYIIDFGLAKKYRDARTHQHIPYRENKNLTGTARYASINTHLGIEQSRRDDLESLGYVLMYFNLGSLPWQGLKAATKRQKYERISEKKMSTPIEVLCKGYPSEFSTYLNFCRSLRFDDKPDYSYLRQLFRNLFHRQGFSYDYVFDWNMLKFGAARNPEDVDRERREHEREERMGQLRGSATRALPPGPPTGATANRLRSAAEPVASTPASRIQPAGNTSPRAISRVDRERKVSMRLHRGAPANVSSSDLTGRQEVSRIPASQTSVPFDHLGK
Sequence of Mitogen-activated protein kinase kinase kinase 9 (Homo sapiens) (P80192 whole entry, looked up): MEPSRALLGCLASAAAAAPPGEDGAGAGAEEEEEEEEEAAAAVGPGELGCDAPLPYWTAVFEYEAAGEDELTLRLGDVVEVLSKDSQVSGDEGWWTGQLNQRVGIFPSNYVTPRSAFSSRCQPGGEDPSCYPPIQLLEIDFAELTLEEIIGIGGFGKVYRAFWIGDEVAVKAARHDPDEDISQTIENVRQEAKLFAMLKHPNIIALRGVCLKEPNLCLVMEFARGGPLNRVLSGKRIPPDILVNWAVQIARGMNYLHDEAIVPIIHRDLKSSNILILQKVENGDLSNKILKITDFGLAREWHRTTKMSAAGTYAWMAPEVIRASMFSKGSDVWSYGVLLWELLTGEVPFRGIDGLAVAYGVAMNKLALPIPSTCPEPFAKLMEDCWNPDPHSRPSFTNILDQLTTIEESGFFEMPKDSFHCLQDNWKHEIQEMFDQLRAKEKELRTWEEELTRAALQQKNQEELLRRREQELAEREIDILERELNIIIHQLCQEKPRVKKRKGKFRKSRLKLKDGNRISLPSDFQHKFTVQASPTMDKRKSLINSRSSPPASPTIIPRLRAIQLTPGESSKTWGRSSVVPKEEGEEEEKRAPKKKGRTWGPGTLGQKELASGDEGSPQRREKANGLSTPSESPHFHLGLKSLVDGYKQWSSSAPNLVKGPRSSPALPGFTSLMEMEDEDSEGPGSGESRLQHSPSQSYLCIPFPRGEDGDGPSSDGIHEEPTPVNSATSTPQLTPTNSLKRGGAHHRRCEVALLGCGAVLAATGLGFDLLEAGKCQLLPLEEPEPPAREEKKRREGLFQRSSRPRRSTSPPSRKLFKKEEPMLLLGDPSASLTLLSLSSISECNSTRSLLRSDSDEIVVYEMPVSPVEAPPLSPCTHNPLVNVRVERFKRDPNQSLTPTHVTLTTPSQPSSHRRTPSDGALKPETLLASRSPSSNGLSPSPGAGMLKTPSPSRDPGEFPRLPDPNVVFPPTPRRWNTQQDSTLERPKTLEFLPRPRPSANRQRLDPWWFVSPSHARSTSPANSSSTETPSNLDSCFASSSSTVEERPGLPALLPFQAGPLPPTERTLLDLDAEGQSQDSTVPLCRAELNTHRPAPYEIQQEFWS
Sequence of Protein kinase C delta type (Homo sapiens) (Q05655 whole entry, looked up): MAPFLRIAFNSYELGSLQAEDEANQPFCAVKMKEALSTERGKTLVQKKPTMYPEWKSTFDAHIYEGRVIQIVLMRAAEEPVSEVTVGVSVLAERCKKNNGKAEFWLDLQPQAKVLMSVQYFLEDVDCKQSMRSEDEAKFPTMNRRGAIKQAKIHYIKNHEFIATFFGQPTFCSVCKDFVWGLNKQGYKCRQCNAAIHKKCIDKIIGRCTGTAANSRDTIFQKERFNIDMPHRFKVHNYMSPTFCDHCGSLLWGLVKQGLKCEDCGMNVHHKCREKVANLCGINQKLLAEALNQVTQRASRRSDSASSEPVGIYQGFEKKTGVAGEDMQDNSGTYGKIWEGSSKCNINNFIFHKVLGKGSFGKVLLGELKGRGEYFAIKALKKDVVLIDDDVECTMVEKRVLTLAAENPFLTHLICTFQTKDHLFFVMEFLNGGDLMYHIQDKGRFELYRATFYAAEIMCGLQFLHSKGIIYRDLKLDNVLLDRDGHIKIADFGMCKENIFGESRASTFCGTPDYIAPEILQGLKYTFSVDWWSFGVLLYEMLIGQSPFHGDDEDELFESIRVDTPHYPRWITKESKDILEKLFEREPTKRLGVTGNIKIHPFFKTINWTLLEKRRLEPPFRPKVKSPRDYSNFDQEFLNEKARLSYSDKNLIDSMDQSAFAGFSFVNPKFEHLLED
Sequence of Ribosomal protein S6 kinase alpha-6 (Homo sapiens) (Q9UK32 whole entry, canonical isoform): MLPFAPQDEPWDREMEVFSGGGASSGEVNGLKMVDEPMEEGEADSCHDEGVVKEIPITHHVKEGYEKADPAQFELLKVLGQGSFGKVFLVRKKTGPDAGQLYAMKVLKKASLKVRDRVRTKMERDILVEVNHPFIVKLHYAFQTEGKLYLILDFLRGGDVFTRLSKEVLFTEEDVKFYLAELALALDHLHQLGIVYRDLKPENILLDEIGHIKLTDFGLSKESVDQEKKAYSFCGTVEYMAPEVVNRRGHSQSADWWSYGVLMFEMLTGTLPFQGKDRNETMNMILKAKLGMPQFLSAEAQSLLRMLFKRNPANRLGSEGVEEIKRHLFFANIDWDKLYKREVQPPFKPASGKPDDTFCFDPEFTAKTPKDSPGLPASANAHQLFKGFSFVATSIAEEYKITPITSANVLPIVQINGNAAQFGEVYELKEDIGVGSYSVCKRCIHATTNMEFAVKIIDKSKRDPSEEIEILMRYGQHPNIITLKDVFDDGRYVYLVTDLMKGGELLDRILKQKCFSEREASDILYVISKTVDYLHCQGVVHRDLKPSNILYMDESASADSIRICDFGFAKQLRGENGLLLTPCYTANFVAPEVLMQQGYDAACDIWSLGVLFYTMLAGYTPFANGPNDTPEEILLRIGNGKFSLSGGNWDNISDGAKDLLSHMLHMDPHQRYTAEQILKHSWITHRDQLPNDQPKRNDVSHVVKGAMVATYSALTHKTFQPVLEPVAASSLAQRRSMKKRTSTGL
Sequence of Protein-tyrosine kinase 6 (Homo sapiens) (Q13882 whole entry, looked up): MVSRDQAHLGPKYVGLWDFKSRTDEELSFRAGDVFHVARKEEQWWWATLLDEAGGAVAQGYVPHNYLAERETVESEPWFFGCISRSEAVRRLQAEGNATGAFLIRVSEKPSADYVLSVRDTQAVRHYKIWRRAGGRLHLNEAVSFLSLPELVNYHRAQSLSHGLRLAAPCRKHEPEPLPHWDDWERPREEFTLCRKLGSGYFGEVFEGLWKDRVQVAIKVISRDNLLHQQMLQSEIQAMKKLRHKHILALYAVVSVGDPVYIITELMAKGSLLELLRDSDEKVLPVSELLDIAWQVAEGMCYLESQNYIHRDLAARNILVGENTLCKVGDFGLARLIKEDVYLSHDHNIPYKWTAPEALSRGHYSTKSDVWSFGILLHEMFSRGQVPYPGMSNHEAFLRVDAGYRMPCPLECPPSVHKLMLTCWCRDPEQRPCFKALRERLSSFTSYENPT

CCCCN(CCCC)C(=O)CN1C[C@@H](c2cc(OC)c3c(c2)OCO3)[C@H](C(=O)O)[C@H]1CC(C)(C)CCC [A-545]
residual activity [1]: 82.4% | residual activity [2]: 87.7% | residual activity [3]: 100% | inhibition [4]: 23% | inhibition [5]: 43.5% | residual activity [6]: 100% | residual activity [7]: 94.9% | residual activity [8]: 93.9% | residual activity [9]: 79.2% | residual activity [10]: 100% | residual activity [11]: 80.6% | residual activity [12]: 100% | residual activity [13]: 100% | residual activity [14]: 100% | residual activity [15]: 93.3% | residual activity [16]: 100% | residual activity [17]: 98.2% | residual activity [18]: 100% | residual activity [19]: 100% | residual activity [20]: 88.9% | inhibition [21]: 30.5% | residual activity [22]: 100% | residual activity [23]: 100% | residual activity [24]: 100% | inhibition [25]: 69.9% | residual activity [26]: 100% | residual activity [27]: 100% | residual activity [28]: 96.3% | residual activity [29]: 100% | residual activity [30]: 92.4% | residual activity [31]: 74.9% | residual activity [32]: 100% | residual activity [33]: 98.8% | residual activity [34]: 100% | residual activity [35]: 99% | residual activity [36]: 86.1% | residual activity [37]: 100% | residual activity [38]: 75.7% | residual activity [39]: 94.5% | residual activity [40]: 72.4% | residual activity [41]: 77.6% | residual activity [42]: 100% | residual activity [43]: 100% | residual activity [44]: 79.9% | inhibition [45]: 58.5%

CCCCN(CCCC)C(=O)CN1C[C@H](c2cc(OC)c3c(c2)OCO3)[C@@H](C(=O)O)[C@@H]1CC(C)(C)CCC [ABT-546]
residual activity [1]: 100% | residual activity [2]: 100% | residual activity [3]: 100% | inhibition [4]: -0.591% | inhibition [5]: -5.07% | residual activity [6]: 100% | residual activity [7]: 75.4% | residual activity [8]: 100% | residual activity [9]: 100% | residual activity [10]: 100% | residual activity [11]: 64.2% | residual activity [12]: 100% | residual activity [13]: 83.7% | residual activity [14]: 100% | residual activity [15]: 99.3% | residual activity [16]: 100% | residual activity [17]: 100% | residual activity [18]: 95.4% | residual activity [19]: 100% | residual activity [20]: 100% | inhibition [21]: 17% | residual activity [22]: 56.2% | residual activity [23]: 100% | residual activity [24]: 100% | inhibition [25]: -1.47% | residual activity [26]: 56.9% | residual activity [27]: 100% | residual activity [28]: 100% | residual activity [29]: 93.3% | residual activity [30]: 100% | residual activity [31]: 100% | residual activity [32]: 74.8% | residual activity [33]: 100% | residual activity [34]: 100% | residual activity [35]: 100% | residual activity [36]: 100% | residual activity [37]: 100% | residual activity [38]: 100% | residual activity [39]: 67.5% | residual activity [40]: 100% | residual activity [41]: 69.2% | residual activity [42]: 90.2% | residual activity [43]: 100% | residual activity [44]: 92.3% | inhibition [45]: 14.2%

Reference: ChEMBL document CHEMBL4507258 (2021)
